Source: US7368461B2 (AstraZeneca AB, priority 2001, dated 2008)
Several values for one entry are separate records, joined by “and”; a condition that tells them apart may be missing. Equal values may be shown once.

How the values were obtained:
human NK1 receptors = target: T1, human NK1 receptors (Homo sapiens, UniProt P25103); experiment: Receptor binding assay with [3H]SP in membranes of MEL cells expressing cloned human NK1 receptors; conditions: cloned hNK1 in MEL cell membranes; for Ki: read-out: hNK1 (Ki expressed as -Log Molar) (converted)
T1 construct: expressed in transfected cells; host or cells: MEL cells (murine erythroleukemia), membranes
Procedure: (§1) Preparation of Membranes from MEL Cells Transfected with Cloned Human NK1 or NK2 receptors:
(§2) The cloning of the human lung NK1 and NK2 receptors was achieved as described by Hopkins, et al., Biochem. Biophys. Res. Commun. 180: 1110-1117 (1991), and Graham, et al., Biochem. Biophys. Res. Commun. 177: 8-16 (1991). Heterologous expression and scale-up growth of MEL cells transfected with human tachykinin receptors was performed as described for NK2 receptors by Aharony, et al., Mol. Pharmacol. 45: 9-19, 1994.
(§3) Membranes from recombinant MEL cells expressing NK1 or NK2 receptors were prepared as described by Hopkins, et al., (1991). Briefly, cells were homogenized at 4° C. (Brinkman PT-20 Polytron, setting 3, with one 15 sec burst on ice), in a buffer consisting of 50 mM Tris-HCl (pH7.4), 5 mM KCl, 120 mM NaCl, 10 mM EDTA and containing several protease inhibitors (1 mM phenylmethylsulfonylfluoride; 0.1 mg/ml soybean trypsin inhibitor, and 1 mM iodoacetamide). The homogenate was centrifuged at 1200×g for 45 min at 4° C. to remove cell debris. The supernatant was centrifuged at 48,000×g for 45 min at 4° C. The pellet was resuspended with a glass-Teflon motorized homogenizer in 30 volumes of ice-cold 50 mM Tris-HCl (pH 7.4) buffer.
(§4) Ligand binding assays with [^3H]NKA in MEL cells expressing cloned NK2 receptors or [^3H]SP in MEL cells expressing cloned NK1 receptors, were conducted generally as described by Aharony, et al., Mol. Pharmacol. 45: 9-19, 1994, Aharony, et al., Neuropeptides 23: 121-130 (1992) and Aharony, et al., J. Pharmacol. Exp. Ther. 259: 146-155(1991). In brief, incubations were carried out in assay buffer containing membranes, test compounds, and [^3H] ligand (1.0-1.5 nM). In competition experiments, mixtures (0.315 mL) containing various concentrations of competing agents (agonists, antagonists, or vehicle), were incubated at 25° C. for 30 min., with or without 1 μM unlabeled homogenous ligand (NKA or SP), to define non-specific binding. Reactions were initiated by adding membranes (0.1-0.15 mg protein/final concentration) and were conducted in duplicate. Saturation and kinetic experiments were conducted in triplicate. Separation of receptor-bound and free ligand was accomplished by dilution with 1 mL of wash buffer (20 mM Tris-HCl, pH 7.5) followed immediately by vacuum filtration with a total volume of 10 mL of wash buffer (utilizing a Brandel Cell Harvester MB-48R with Whatman GF/B filters presoaked in 0.1% polyethylenimine).
(§5) The ability of compounds disclosed herein to inhibit the binding of [^3H] ligand is shown by the results disclosed in Table 1.

[1] = tested on: BANK-induced bladder contraction; experiment: BANK-induced bladder contraction in anesthetized guinea pigs; type: in vivo, guinea pig; conditions: for Inhibition of BANK-mediated GP bladder contraction (% Inhibition mediated by 52 nM/kg administered orally): anesthetized female guinea pigs, 52 nM/kg orally by gavage 1 hr before BANK 3 nmol/kg iv, mean ± S.E.M.
Procedure: BANK-Induced Bladder Contraction in Anesthetized Guinea Pigs:
Female guinea pigs (300-450 g) were anesthetized by intramuscular administration of ketamine/xylazine mixture (3/10 mg/kg, respectively). The jugular vein was catheterized and the distal end of the catheter connected to a syringe for administration of compound where appropriate. Subsequently, the bladder was exposed through a midline abdominal incision, the ureters tied with 4-0 silk suture approximately 2 cm above the bladder, and cut above the ligature to allow drainage from the kidneys. Cannula were passed through the proximal urethra and bladder sphincter into the bladder lumen. The bladder was manually emptied, infused with 0.3 mL saline, and the catheter attached to a Gould p23 ID pressure transducer for recording changes in bladder pressure. An equilibration period of approximately 15 min was allowed for stabilization of the animals following surgical preparation. Thiorphan (10 mg/kg iv) was administered 15 minutes before agonist exposure to inhibit neutral endopeptidase 3.4.24.11.
The response was allowed to decay during a 15 min equilibration period before intravenous administration of test compound ([…], 5% PEG 400-saline vehicle). An additional 15 min equilibration period elapsed before administration of an equivalent dose of BANK was repeated. Preliminary studies were performed to establish equivalence of bladder contractile responses to multiple administrations of BANK. Effects were calculated as the percentage difference between the response to BANK in the presence and absence of test compounds.
To establish the oral effect of test compounds, animals were administered the test compounds (52 nmol/kg, 5% PEG 400-saline vehicle) by gavage 1 hr before administration of BANK. This was followed by intravenous administration of BANK (3 nmol/kg). Bladder contraction occurring in the presence or absence of test compound was recorded as an increase in intravesical bladder pressure on a Grass 7D Polygraph and expressed as percent inhibition of the BANK-mediated effect. Duration of action studies were performed following oral administration of test compounds ([…], 5% PEG 400-saline vehicle) at different times prior to administration of BANK. Responses were calculated as the percentage difference between the response to BANK in the presence of test compound compared with sham-treated controls. For all studies, each animal was administered a single dose of test compound. Experimental results were expressed as the mean plus or minus the Standard Error of the Mean (±S.E.M) percentage change from basal level.
The ability of compounds disclosed herein to inhibit bladder contractions induced with BANK is shown by the results disclosed in Table 1.

human NK2 receptors = target: T2, human NK2 receptors (Homo sapiens, UniProt P21452); experiment: Receptor binding assay with [3H]NKA in membranes of MEL cells expressing cloned human NK2 receptors; conditions: cloned hNK2 in MEL cell membranes; for Ki: read-out: hNK2 (Ki expressed as -Log Molar) (converted)
T2 construct: expressed in transfected cells; host or cells: MEL cells (murine erythroleukemia), membranes
T2 sequence (P21452 1-398): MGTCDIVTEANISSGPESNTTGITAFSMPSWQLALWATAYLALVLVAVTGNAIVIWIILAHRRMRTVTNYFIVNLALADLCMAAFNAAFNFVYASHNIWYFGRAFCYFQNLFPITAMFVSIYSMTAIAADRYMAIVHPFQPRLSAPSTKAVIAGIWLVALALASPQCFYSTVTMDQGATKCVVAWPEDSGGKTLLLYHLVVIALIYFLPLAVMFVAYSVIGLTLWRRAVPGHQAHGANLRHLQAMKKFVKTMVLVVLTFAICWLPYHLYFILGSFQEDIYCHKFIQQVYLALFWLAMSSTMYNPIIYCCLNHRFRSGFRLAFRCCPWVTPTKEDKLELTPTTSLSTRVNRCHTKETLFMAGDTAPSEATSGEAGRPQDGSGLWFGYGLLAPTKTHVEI
Procedure: as §1, §2, §3, §4, §5

T1 sequence (P25103 whole entry): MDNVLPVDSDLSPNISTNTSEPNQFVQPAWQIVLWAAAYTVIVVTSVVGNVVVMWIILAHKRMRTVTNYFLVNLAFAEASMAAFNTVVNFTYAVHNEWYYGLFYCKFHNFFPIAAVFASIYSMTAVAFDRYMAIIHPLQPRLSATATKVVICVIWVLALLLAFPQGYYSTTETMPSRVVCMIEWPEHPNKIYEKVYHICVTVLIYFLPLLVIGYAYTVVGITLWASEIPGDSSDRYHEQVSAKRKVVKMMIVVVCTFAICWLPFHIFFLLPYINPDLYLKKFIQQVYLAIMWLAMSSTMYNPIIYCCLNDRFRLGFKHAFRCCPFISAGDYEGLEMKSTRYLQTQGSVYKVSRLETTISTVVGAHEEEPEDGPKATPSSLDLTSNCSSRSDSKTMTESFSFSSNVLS

Compound | Ki (human NK1 receptors) | Inhibition of BANK-mediated GP bladder contraction (% Inhibition mediated by 52 nM/kg administered orally) [1] | Ki (human NK2 receptors) | hNK1 (Ki expressed as -Log Molar) (human NK1 receptors) | hNK2 (Ki expressed as -Log Molar) (human NK2 receptors) | increase in the bladder contraction induced by BANK ([1]; guinea pig, as shown in Table 1 (52 nM/kg orally)) | inhibition at 10 µM (human NK1 receptors; 10 μM)
CN(C[C@@H](CCN1CCC(N2CCCCC2=O)CC1)c1ccc(Cl)c(Cl)c1)C(=O)c1ccccc1F [Example 1, (S)—N-[2-(3,4-Dichloro-phenyl)-4-(2-oxo-[1,4′]bipiperidinyl-1′-yl)-butyl]-2-fluoro-N-methyl-benzamide] | 91.2 nM | 80% and 80 ± 6% | 1.45 nM |  |  |  | 
CN(C[C@@H](CCN1CCC(N2CCCCC2=S)CC1)c1ccc(Cl)c(Cl)c1)C(=O)c1ccccc1 [Example 2, (S)—N-[2-(3,4-Dichlorophenyl)-4-[4-(2-thio-piperidin-1-yl)piperidino]butyl]-N-methylbenzamide] |  | 42 ± 13% |  | 7.22 -Log Molar | 8.73 -Log Molar |  | 
CN(C[C@@H](CCN1CCC(N2CCCCC2=O)CC1)c1ccc(Cl)c(Cl)c1)C(=O)c1ccc(F)cc1 [Example 4, (S)—N-[2-(3,4-Dichlorophenyl)-4-[4-(2-oxo-piperidin-1-yl)piperidino]butyl]-N-methyl-4-fluorobenzamide] |  | −28 ± 45% |  |  |  | 28% | 
CN(C[C@@H](CCN1CCC(N2CCCCC2=O)CC1)c1ccc(Cl)c(Cl)c1)C(=O)c1ccccc1 [Example 5, (S)—N-[2-(3,4-Dichlorophenyl)-4-[4-(2-oxo-piperidin-1-yl)piperidino]butyl]-N-methylbenzamide] | 427 nM |  | 3.31 nM |  |  |  | 
CCNC(=O)C1(N2CCCCC2=O)CCN(CC[C@H](CN(C)C(=O)c2ccccc2)c2ccc(Cl)c(Cl)c2)CC1 [Example 6] |  | −65 ± 58% | 0.2 nM |  |  |  | 84%
